Source: patent publication US20180371408A1, “CELL CULTURES AND METHODS OF USE” (priority 2017, published 2018)
Like-named read-outs stand apart in the source and are kept apart here.

What was measured:
Leydig cells (TM3) = experiment: cells; format: cell-based, mouse; settings: Mus musculus, Leydig, read-out: IC50
[1] = NR dye uptake assay, co-cultures treated with BPA and analogs (Example 2); settings: mouse
Protocol: (§1) The testicular cell co-culture model was established as reported in Example 1 Briefly, mouse spermatogonial cell line C18-4 was established via germ cells isolated from the testes of 6 day old Balb/c mice. […] Mouse Leydig (TM3) and Sertoli (TM4) cell lines were purchased from ATCC, and these cells were isolated from prepubertal mouse gonads. C18-4 cells were maintained in DMEM composed of 5% FBS, and 100 U/ml streptomycin and penicillin in a 33° C., 5% CO2 humidified environment in a sub-confluent condition, and were passaged every 3-4 days TM3 and TM4 cells were cultured in DME/F12 composed of 1.25% FBS, 2.5% horse serum, and 100 U/ml streptomycin and penicillin at 37° C., 5% CO2 in a sub-confluent condition, and were passaged every 2-3 days. When the cells reached 70-80% confluence, a total of 1.5×10^4 cells per well were inoculated into a 96-well plate. […] The co-cultures were maintained in DMEM composed of 2.5% Nu-serum, and 100 U/ml streptomycin and penicillin in a 33° C., 5% CO2 humidified environment.
(§2) Cell viability was determined through the Neutral Red uptake assay, which is based on the ability of viable cells to incorporate NR dye into their lysosomes, while the dye is not retained if the cell dies (Repetto et al., 2008). […] The vehicle controls were set as the co-cultures treated with the vehicle (0.05% DMSO) After the treatments, the culture medium was replaced by fresh medium containing NR (50 μg/ml). After a 3 h incubation period, the co-cultures were washed with phosphate buffered saline (PBS), and the NR dye was eluted with 100 μl of a 0.5% acetic acid/50% ethanol solution. The plate was then gently shaken, and absorbance values were measured at 540 nm with a Synergy HT microplate reader (BioTek, VT). Cell viability was presented as a percentage of the mean of vehicle controls after subtracting background readings.
(§3) The data obtained from the HCS Studio·8 2.0 TargetActivation BioApplication, CellProfiler and CellProfiler Analyst were exported and further analyzed using the JMP statistical analysis package (SAS Institute, NC). To remove cell clumps, nuclei with areas larger than […] were excluded. […] For intra-plate normalization, data were normalized to the overall scaling factors, which was the mean of medians of the vehicle controls in each plate. The single cell-based data were averaged for the well-based condition. BrdU-positive cells were set by the total intensity of BrdU in the control at over 25,000 pixels. γ-H2AX positive cells were set by the total intensity of γ-H2AX in the control at over 120,000 pixels. The median lethal concentrations (LC50) were calculated using a nonlinear regression curve fit on GraphPad Prism 5 (San Diego, Calif.). To examine the correlation between the cytoskeleton and DNA damage responses in multinucleated cells, the Spearman correlation analysis was conducted between the total intensity of F-actin and γ-H2AX for 24, 48, and 72 h using cell-based data. Data were presented as mean±standard deviation (SD). Statistical significance was determined using one-way ANOVA followed by Tukey-Kramer all pairs comparison. The p-value less than 0.05 denoted a significant difference compared to the vehicle control (*).

[2] = system: testicular cell co-culture (C18-4, TM4, TM3); experiment: as above
Protocol: as §1, §2, §3

[3] = system: testicular cell co-culture (C18-4, TM4, TM3); experiment: High-content image analysis of nuclear morphology and cell number; format: cell-based, mouse
Protocol: (§4) BrdU incorporation, cell fixation, BrdU, and DNA staining followed the previously published protocol (Liang, et al., 2017b). the determination of DNA damage responses and cytoskeleton analysis was conducted after cell fixation. The cells were then permeabilized by a 0.1% Triton X-100 in PBS, and then incubated with a mouse-anti phosphor-histone H2AX (Ser139) (γ-H2AX) overnight at 4° C. […] Finally, prior to acquiring the images, the cells were stained with Alexa Fluor 488 Phallodin for 30 minutes to stain the F-actin (Liang, et al., 2017)
(§5) Multi-channel images were then automatically acquired using an Arrayscan™ VTI HCS reader (Thermo Scientific, MA) with the HCS Studio 2.0 Target Activation BioApplication module. Forty-nine fields per well were acquired at 20× and 40× magnification using a Hamamatsu ROCA-ER digital camera in combination with a 0.63× coupler and Carl Zeiss microscope optics in auto-focus mode. Image smoothing was conducted in order to reduce object fragmentation prior to the primary object identification that takes place in the first channel. Channel one (Ch1) applied the BGRFR 386_23 for Hoechst 33342 that was used for auto-focus, object identification, and segmentation. The border objects were then excluded. Channel two (Ch2) applied applied the BGRFR 549_15, which identified the BrdU staining and BGRFR 485_20 to identify the F-actin staining. BGRFR 650_13 was applied in Channel three (Ch3) and identified the γ-H2AX staining.
(§6) Multi-Channel images were analyzed using HCS Studio™2.0 TargetActivation BioApplication. Multiple parameters of nuclei were characterized in HCA, including nuclei number, nuclear area, shape, and total DNA intensity. Nuclear shape measurements included P2A, a ratio of the nuclear perimeter squared to 4it*nucleus area (perimeter^2/4π*enuclear area) to evaluate nuclear smoothness, and LWR, a ratio of the nuclear length to width, to measure nuclear roundness. For a fairly round and smooth object, the values for P2A and LWR are around 1.0. Total intensity was defined as total pixel intensity within a cell in the respective channel. The total intensities of BrdU, γ-H2AX, and F-actin of the individual cells were also quantified. With forty-nine 20× images acquired from each well, at least 1,000 cells were analyzed per well, and single-cell based data were extracted for further analysis. The experiments were performed with at least four biological replicates and repeated twice.
(§7) Data were presented as mean±standard deviation (SD).

[4] = system: testicular cell co-culture (C18-4, TM4, TM3); experiment: HCA of F-actin cytoskeleton and γ-H2AX DNA damage response; format: cell-based, mouse; settings: for effect on F-actin cord-like structures, in words: FIG. 14A: BPA and BPS 100 μM, BPAF 5 and 15 μM, TBBPA 15 μM, 48 h; for doses inducing DNA damage response (γ-H2AX): co-culture model; for γ-H2AX expression, in words: co-cultures, up to 100 μM
Protocol: as §4, §5, §6, §7

[5] = system: testicular co-culture: spermatogonial cells (C18-4), Sertoli cells (TM4), Leydig cells (TM3); settings: co-culture; for in vitro call as reproductive toxicant: 48 h, based on cluster analysis; for effect on cell viability (NR uptake), in words: 48 h treatment, FIG. 6
[6] = system: testicular co-culture: spermatogonial cells (C18-4), Sertoli cells (TM4), Leydig cells (TM3); experiment: cells; settings: Mus musculus

CC(C)(c1cc(Br)c(O)c(Br)c1)c1cc(Br)c(O)c(Br)c1 [TBBPA, 2,2′,6,6′-Tetrabromo-4,4′-isopropylidenediphenol]
IC50 (Leydig cells (TM3); 24 h): 70 µM | IC50 (Leydig cells (TM3); 48 h): 60 µM | CC50 at 72 h [1]: 16.8 µM | doses significantly decreasing cell viability ([2]; 24, 48, and 72 h): ≥ 25 µM | doses reducing cell number ([3]; 24, 48, and 72 h): ≥ 10 µM | doses with significant increase in nuclear area ([3]; 24, 48, and 72 h): 15 µM | doses significantly increasing P2A ([3]; 24 and 48 h): 15 µM | doses significantly reducing LWR (nuclear roundness) ([3]; 72 h): 15 µM | doses significantly reducing P2A (nuclear smoothness) ([3]; 72 h): 15 µM | effect on F-actin cord-like structures, in words [4]: dramatically perturbed these structures | doses inducing DNA damage response (γ-H2AX) [4]: 15 µM | in vitro call as reproductive toxicant [5]: positive | IC50 ([6]; 24 h): 70 µM | IC50 ([6]; 48 h): 58 µM | IC50 ([6]; read-out: IC50 values (mostly)): ≤ 100 µM

O=S(=O)(c1ccc(O)cc1)c1ccc(O)cc1 [BPS, 4,4′-Sulfonyldiphenol]
IC50 (Leydig cells (TM3); 24 h): 435 µM | IC50 (Leydig cells (TM3); 48 h): ≥ 400 µM | doses significantly decreasing cell viability ([2]; 24 h): ≥ 400 µM | doses significantly reducing cell number ([3]; 24 h): 100 µM | doses with significant increase in nuclear area ([3]; 72 h): 100 µM | doses with significant increase in F-actin total intensity ([4]; 24 and 48 h): 100 µM | effect on F-actin cord-like structures, in words [4]: induced no notable changes | γ-H2AX expression, in words [4]: did not induce γ-H2AX expression | in vitro call as reproductive toxicant [5]: positive | effect on cell viability (NR uptake), in words [5]: significant dose-dependent decrease of cell viability | IC50 ([6]; 24 h): 574 µM | IC50 ([6]; 48 h): 341 µM

Oc1ccc(C(c2ccc(O)cc2)(C(F)(F)F)C(F)(F)F)cc1 [BPAF, 4,4′-(Hexafluoroisopropylidene)diphenol]
IC50 (Leydig cells (TM3); 24 h): 30 µM | IC50 (Leydig cells (TM3); 48 h): 20 µM | CC50 at 72 h [1]: 8.5 µM | doses significantly decreasing cell viability ([2]; 24, 48, and 72 h): ≥ 5 µM | toxicity ranking among BPA and analogs ([2]; co-culture model, followed by TBBPA, BPA, and BPS): highest toxicity | doses reducing cell number ([3]; 24, 48, and 72 h): ≥ 2.5 µM | doses significantly increasing LWR ([3]; 24 and 48 h): 5 µM | doses significantly increasing P2A ([3]; 24 and 48 h): 5 µM | doses with significant increase in nuclear area ([3]; 24 h): 10 µM | doses significantly reducing LWR (nuclear roundness) ([3]; 72 h): 15 µM | doses significantly reducing P2A (nuclear smoothness) ([3]; 72 h): 15 µM | effect on F-actin cord-like structures, in words [4]: dramatically perturbed these structures | doses inducing DNA damage response (γ-H2AX) [4]: ≥ 5 µM | in vitro call as reproductive toxicant [5]: positive | IC50 ([6]; 24 h): 78 µM | IC50 ([6]; 48 h): 50 µM

CC(C)(c1ccc(O)cc1)c1ccc(O)cc1 [BPA, 4,4′-(propane-2,2-diyl) diphenol]
IC50 (Leydig cells (TM3); 24 h): 88 µM | IC50 (Leydig cells (TM3); 48 h): 80.5 µM | CC50 at 72 h [1]: 150 µM | doses significantly decreasing cell viability ([2]; 24 h): ≥ 200 µM | doses with significant increase in nuclear area ([3]; 24, 48, and 72 h): 100 µM | doses significantly reducing LWR (nuclear roundness) ([3]; 48 and 72 h): ≥ 25 µM | doses significantly reducing LWR (nuclear roundness) ([3]; 24 h): ≥ 50 µM | doses significantly reducing P2A (nuclear smoothness) ([3]; 24 h): 50 µM | doses significantly reducing cell number ([3]; 24 h): 100 µM | doses with significant decrease in nuclear area ([3]; 24 h): ≥ 10 µM | doses with significant increase in F-actin total intensity ([4]; 72 h): 100 µM | effect on F-actin cord-like structures, in words [4]: dramatically perturbed these structures | γ-H2AX expression, in words [4]: did not induce γ-H2AX expression | effect on cell viability (NR uptake), in words [5]: significant dose-dependent decrease of cell viability | IC50 ([6]; 24 h): 210 µM | IC50 ([6]; 48 h): 186 µM
